A word on the Ki: it is a measure of affinity in units of concentration, obtained from inhibition or displacement. What is called inhibition is the drop in the measured response relative to a control, in per cent. Broadly, the IC50 is the concentration at which inhibition is half-maximal.

Assay [1] has as its target T1, Histamine H3 receptor (Rattus norvegicus, UniProt Q9QYN8). The assay is described as follows: Displacement of [3H]N-alpha-methylhistamine from histamine H3 receptor in rat striatal membrane. The class given is cell membranes, Striatum. For orientation: Loss of bound radioactivity is the signal in a displacement assay; it reports binding, not function.
Assay [2] has as its target T2, Histamine H3 receptor (Homo sapiens, UniProt Q9Y5N1). Kind of assay: Displacement of [3H]N-alpha-methylhistamine from human cloned histamine H3 receptor expressed in monkey COS7 cells. The class given is cell-based, COS-7.
For assay [3], the target named is Histamine H1 receptor (Homo sapiens) (UniProt P35367). The assay is described as follows: Displacement of [3H]pyrilamine from human H1 receptor expressed in monkey COS7 cells at 10 uM. Conditions: COS-7. Format: cell-based.
Sequence of Histamine H1 receptor (Homo sapiens) (P35367 whole entry): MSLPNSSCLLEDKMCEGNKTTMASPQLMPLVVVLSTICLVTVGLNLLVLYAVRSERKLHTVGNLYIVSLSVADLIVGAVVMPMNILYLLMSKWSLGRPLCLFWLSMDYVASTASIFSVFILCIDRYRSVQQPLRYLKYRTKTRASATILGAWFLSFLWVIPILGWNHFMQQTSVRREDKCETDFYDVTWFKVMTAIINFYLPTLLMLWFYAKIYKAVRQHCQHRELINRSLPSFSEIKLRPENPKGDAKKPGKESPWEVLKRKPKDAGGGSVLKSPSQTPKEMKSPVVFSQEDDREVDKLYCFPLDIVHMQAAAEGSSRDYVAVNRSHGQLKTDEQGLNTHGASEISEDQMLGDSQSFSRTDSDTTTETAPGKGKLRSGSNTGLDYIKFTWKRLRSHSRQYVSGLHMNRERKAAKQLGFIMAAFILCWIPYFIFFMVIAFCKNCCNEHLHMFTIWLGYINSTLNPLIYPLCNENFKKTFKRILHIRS
Assay [4] deals with Histamine H4 receptor (Homo sapiens) (UniProt Q9H3N8). The assay is described as follows: Displacement of [3H]histamine from human H4 receptor expressed in monkey COS7 cells at 1 uM. The class given is cell-based. To be noted: COS-7.
Sequence of Histamine H4 receptor (Homo sapiens) (Q9H3N8 whole entry): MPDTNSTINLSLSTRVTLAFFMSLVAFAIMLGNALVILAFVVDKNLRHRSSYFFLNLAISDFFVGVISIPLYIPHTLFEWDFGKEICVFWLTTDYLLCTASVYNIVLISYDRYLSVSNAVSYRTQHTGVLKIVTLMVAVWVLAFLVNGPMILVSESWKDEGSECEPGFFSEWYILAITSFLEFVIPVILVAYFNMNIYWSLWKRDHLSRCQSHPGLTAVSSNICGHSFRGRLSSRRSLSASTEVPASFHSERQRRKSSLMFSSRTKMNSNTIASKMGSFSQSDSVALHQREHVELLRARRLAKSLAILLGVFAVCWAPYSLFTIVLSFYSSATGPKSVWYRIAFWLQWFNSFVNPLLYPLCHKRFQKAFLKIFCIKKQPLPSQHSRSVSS
Assay [5] deals with Histamine H2 receptor (Homo sapiens) (UniProt P25021). The assay is described as follows: Displacement of [3H]tiotidine from human H2 receptor expressed in monkey COS7 cells at 1 uM. Conditions: COS-7. The class given is cell-based.
Sequence of Histamine H2 receptor (Homo sapiens) (P25021 whole entry): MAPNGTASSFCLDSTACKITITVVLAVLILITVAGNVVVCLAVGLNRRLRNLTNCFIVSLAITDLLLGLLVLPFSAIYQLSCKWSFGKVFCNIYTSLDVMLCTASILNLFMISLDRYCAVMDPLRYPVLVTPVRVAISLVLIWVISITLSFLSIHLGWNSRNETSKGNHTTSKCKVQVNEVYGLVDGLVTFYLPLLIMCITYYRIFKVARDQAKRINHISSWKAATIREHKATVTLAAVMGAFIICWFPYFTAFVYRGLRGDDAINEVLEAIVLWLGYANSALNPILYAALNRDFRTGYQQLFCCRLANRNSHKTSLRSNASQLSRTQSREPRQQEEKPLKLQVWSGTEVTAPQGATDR
Assay [6] shares this target. Kind of assay: Displacement of [3H]tiotidine from human H2 receptor expressed in monkey COS7 cells at 10 uM. Conditions: COS-7. Format: cell-based.
Assay [7] deals with Histamine H4 receptor (Homo sapiens) (UniProt Q9H3N8). Kind of assay: Displacement of [3H]histamine from human H4 receptor expressed in monkey COS7 cells at 10 uM. To be noted: COS-7. The class given is cell-based.
The target of assay [8] is Histamine H1 receptor (Homo sapiens) (UniProt P35367). Kind of assay: Displacement of [3H]pyrilamine from human H1 receptor expressed in monkey COS7 cells at 1 uM. Format: cell-based. Conditions: COS-7.
Assay [9] concerns the target Histamine H3 receptor (Rattus norvegicus) (UniProt Q9QYN8). Kind of assay: Displacement of [3H]N-alpha-methylhistamine from histamine H3 receptor in rat striatal membrane at 0.1 uM. Conditions: Striatum. Format: cell membranes.
For assay [10], the target named is T2, Histamine H3 receptor. Kind of assay: Displacement of [3H]N-alpha-methylhistamine from human cloned histamine H3 receptor expressed in monkey COS7 cells at 1 uM. The class given is cell-based. To be noted: COS-7.
Assay [11] concerns the target Histamine H3 receptor (Rattus norvegicus) (UniProt Q9QYN8). Kind of assay: Displacement of [3H]N-alpha-methylhistamine from histamine H3 receptor in rat striatal membrane at 1 uM. To be noted: Striatum. The class given is cell membranes.
Assay [12] has as its target T2, Histamine H3 receptor. Kind of assay: Displacement of [3H]N-alpha-methylhistamine from human cloned histamine H3 receptor expressed in monkey COS7 cells at 0.1 uM. The class given is cell-based. To be noted: COS-7.
Assay [13] addresses T1, Histamine H3 receptor. Kind of assay: Antagonist activity at histamine H3 receptor in rat forebrain assessed as inhibition of [3H]histamine release from synaptosomes. The class given is functional, subcellular, Brain.

T2 sequence (Q9Y5N1 whole entry): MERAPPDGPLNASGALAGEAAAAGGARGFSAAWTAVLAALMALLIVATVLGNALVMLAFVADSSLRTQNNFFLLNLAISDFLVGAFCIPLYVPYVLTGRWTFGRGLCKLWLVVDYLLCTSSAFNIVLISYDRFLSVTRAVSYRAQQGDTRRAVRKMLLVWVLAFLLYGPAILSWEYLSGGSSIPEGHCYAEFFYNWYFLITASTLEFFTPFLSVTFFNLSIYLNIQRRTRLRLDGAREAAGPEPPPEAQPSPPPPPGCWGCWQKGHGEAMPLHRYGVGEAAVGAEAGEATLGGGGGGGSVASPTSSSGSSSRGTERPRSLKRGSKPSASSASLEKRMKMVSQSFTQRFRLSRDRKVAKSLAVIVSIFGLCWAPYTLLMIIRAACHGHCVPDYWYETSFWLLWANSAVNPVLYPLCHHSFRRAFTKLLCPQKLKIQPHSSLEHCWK
T1 sequence (Q9QYN8 whole entry): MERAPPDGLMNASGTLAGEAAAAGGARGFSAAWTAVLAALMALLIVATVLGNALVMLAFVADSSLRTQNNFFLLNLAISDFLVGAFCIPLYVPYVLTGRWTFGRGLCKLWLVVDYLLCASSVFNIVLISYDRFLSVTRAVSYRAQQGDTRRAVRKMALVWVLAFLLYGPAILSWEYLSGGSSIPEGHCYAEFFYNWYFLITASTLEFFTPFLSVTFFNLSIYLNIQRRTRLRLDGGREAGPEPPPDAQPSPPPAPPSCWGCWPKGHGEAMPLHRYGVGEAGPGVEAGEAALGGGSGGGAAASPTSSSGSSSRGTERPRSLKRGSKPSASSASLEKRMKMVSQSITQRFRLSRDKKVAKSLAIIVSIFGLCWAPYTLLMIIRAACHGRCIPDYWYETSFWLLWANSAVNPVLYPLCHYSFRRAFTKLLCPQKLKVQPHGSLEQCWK
Sequence of Histamine H3 receptor (Rattus norvegicus) (Q9QYN8 whole entry): as above

On to `N#CC(C#N)=C1N(CCCN2CCCCC2)CCN1Cc1cccc2ccccc12`, for which the results for the inhibition constant Ki at Histamine H3 receptor [1] and at Histamine H3 receptor [2] were 690 nM and 36 nM, respectively.
For `N#CC(C#N)=C1N(CCCCN2CCCCC2)CCN1CCN1CCCCC1`, the inhibition constant (Ki) on Histamine H3 receptor [1] turned out to be 8.6 nM; on Histamine H3 receptor [2] it was 16 nM.
With `CC1CCCN1CCN1CCN(CCN2CCCCC2)C1=C(C#N)C#N` (racemic), the inhibition in assay [3] is 9%; in assay [4], 2%; in assay [5], -8%; in assay [6] it was -4%; in [7] it was 6%; in assay [8] it was 5%. For the same compound, the Ki at Histamine H3 receptor [1] came to 0.69 nM; on Histamine H3 receptor [2], 0.38 nM.
For `CN1CCN(CCN2CCN(CCN3CCCCC3)C2=C(C#N)C#N)CC1`, the inhibition in [9] was found to be 43%; at Histamine H3 receptor [10], 74%; in assay [11], 82%; on Histamine H3 receptor [12], 37%.
Taken in the same sequence, the figures for `N#CC(C#N)=C1N(CCCCN2CCCCC2)CCN1CCCCN1CCCCC1` were 51%, 68%, 85% and 43%.
Turning to `N#CC(C#N)=C1N(CCN2CCCCC2)CCN1CCN1CCC(O)C1` (racemic), the inhibition in assay [9] was 57%; at Histamine H3 receptor [10], 70%; in assay [11], 86%; at Histamine H3 receptor [12], 49%.
In the case of `CC1CCCN1CCN1CCN(CCN2CCCC2C)C1=C(C#N)C#N` (racemic), the inhibition in assay [3] is 21%; in assay [4], -8%; in assay [5] it was 1%; in assay [6], 0%; in [7], -7%; in [8], 10%. Further, at Histamine H3 receptor [13], the half-inhibitory concentration (IC50) came out at 4.9 nM. Besides, the inhibitory constant (Ki) turned out to be 0.68 nM at Histamine H3 receptor [1] and 0.33 nM at Histamine H3 receptor [2].
In the case of `N#CC(C#N)=C1N(CCCN2CCCCC2)CCN1CCCN1CCCCC1`, the inhibition is 21% in assay [3]; 11% in assay [4]; -5% in assay [5]; -4% in [6]; -1% in [7]; 3% in assay [8]. The IC50 on Histamine H3 receptor [13] is 28 nM. Also, the inhibitory constant (Ki) turned out to be 2.6 nM at Histamine H3 receptor [1] and 2.4 nM on Histamine H3 receptor [2].
Consider `N#CC(C#N)=C1N(CCN2CCCCC2)CCN1CCN1CCOCC1`, for which the inhibition worked out at 44% in assay [9], 69% on Histamine H3 receptor [10], 82% in assay [11] and 37% on Histamine H3 receptor [12].
As for `N#CC(C#N)=C1N(CCN2CCCCC2)CCN1CCN1CCCCC1`, the Ki at Histamine H3 receptor [1] is 55 nM; on Histamine H3 receptor [2], 24 nM.
For `C[C@@H]1CCCN1CCN1CCN(CCN2CCC[C@H]2C)C1=C(C#N)C#N`, the inhibition in assay [3] is -4%; in [4], 9%; in assay [5], -7%; in assay [6] it was -1%; in [7], 8%; in [8], 0%. Moreover, the inhibitory constant (Ki) on Histamine H3 receptor [1] worked out at 1.1 nM; at Histamine H3 receptor [2] it was 1.3 nM.
With `c1cc(OCCCN2CCCCC2)ccc1CN1CCCCC1` [JNJ-5207852], the affinity on Histamine H3 receptor [1], expressed as Ki, was 1.26 nM.
Regarding `C[C@H]1CCCN1CCN1CCN(CCN2CCC[C@@H]2C)C1=C(C#N)C#N`, the inhibition is 14% in assay [3]; 9% in [4]; 2% in [5]; -2% in assay [6]; 0% in assay [7]; 8% in assay [8]. At Histamine H3 receptor [13], the IC50 was 1.9 nM. In addition, the figures for the inhibition constant (Ki) at Histamine H3 receptor [1] and at Histamine H3 receptor [2] were 0.48 nM and 0.34 nM, respectively.
As to `N#CC(C#N)=C1N(CCCN2CCCCC2)CCN1CCN1CCCCC1`, the Ki was 6.3 nM at Histamine H3 receptor [1] and 6.6 nM on Histamine H3 receptor [2].
For `N#CC(C#N)=C1N(CCCCN2CCCCC2)CCN1CCCN1CCCCC1`, the inhibition in assay [9] amounted to 65%; at Histamine H3 receptor [10], 74%; in assay [11], 88%; on Histamine H3 receptor [12], 48%.
For `CCN(CCCN(C)C)CCN1CCN(Cc2cccc3ccccc23)C1=C(C#N)C#N`, the values for the Ki on Histamine H3 receptor [1] and on Histamine H3 receptor [2] were 75 nM and 83 nM, respectively.
Consider `C[C@@H]1CCCN1CCN1CCN(CCN2CCC[C@@H]2C)C1=C(C#N)C#N`, for which the inhibition in assay [3] was 7%; in assay [4], 6%; in assay [6] it was -9%; in assay [7] it was -3%; in assay [8] it was -3%. Further, the Ki was 0.77 nM at Histamine H3 receptor [1] and 0.47 nM at Histamine H3 receptor [2].
